Data taken from patent US10058538B2, “Compositions comprising substituted benzofuroquinolizine and α2-adrenergic agonists” (VETCARE OY, priority 2014, dated 2018).

Legend:
dogs [1] = conditions: dexmedetomidine 10 μg/kg IV, MK-467 250, 500 and 750 μg/kg, especially with higher doses; cited from earlier work
beagle dogs = assay: Composite sedation score (0-20) in dogs, medetomidine with or without MK-467 IM, reversal with atipamezole (Example 2); assay type: in vivo, dog; conditions: FIG. 3
Description: Atipamezole (100 μg/kg IM) was administered at 30 min (arrow).
The study was designed as a prospective, randomized, experimental cross-over study.
Each dog (n=7) was treated twice with a 14-days washout period: • Medetomidine (20 μg/kg) at 0 min, followed by Atipamezole (100 μg/kg) at 30 min • Medetomidine (20 μg/kg)+MK-467 (400 μg/kg) at 0 min, followed by Atipamezole (100 μg/kg) at 30 min
Medetomidine and MK-467 were mixed in the same syringe and administered intramuscularly.
Sedation was scored by a veterinarian blinded for treatment with the following score:
Composite Sedation Score (0-20)
• 0 Standing • 1 Standing but staggers • 2 Sternal head up • 3 Sternal head down • 4 Lateral head down 2. […] Position of the Eye (0-2) • 0 Middle • 2 Turned down 4. Jaw and Tongue Relaxation (0-4) • 0 Normal, opens the jaws but resists manipulation of the tongue • 1 Bites jaws together • 2 Opens the jaws but strong resistance when tongue is pulled • 3 Slight resistance when tongue is pulled • 4 No resistance 5. Resistance to Positioning in Lateral Recumbency (0-3) • 0 Normal • 1 Turns back to sternal position • 2 Some resistance but stays in lateral recumbency • 3 No resistance or the position is already lateral 6. […]

dogs [2] = conditions: medetomidine 20 μg/kg IM or 10 μg/kg IV, compared with baseline values; cited from earlier work
[3] = by reduction in heart rate and cardiac output after medetomidine administration; cited from earlier work

Cc1cccc([C@H](C)c2c[nH]cn2)c1C [dexmedetomidine, (S)-4-[1-(2,3-Dimethylphenyl)ethyl]-3H-imidazole]
BIS-values (bispectral index) (dogs [1]): decreased

CCC1(c2cnc[nH]2)Cc2ccccc2C1 [atipamezole]
reversal of medetomidine induced sedation (beagle dogs; atipamezole 100 μg/kg IM at 30 min after medetomidine 20 μg/kg IM alone or with MK-467 400 μg/kg): reversed

Cc1cccc(C(C)c2cnc[nH]2)c1C (racemic) [medetomidine, (RS)-4-[1-(2,3-dimethylphenyl)ethyl]-3H-imidazole]
resedation after atipamezole reversal (beagle dogs; medetomidine 20 μg/kg IM alone or with MK-467 400 μg/kg in the same syringe, atipamezole 100 μg/kg IM at 30 min): resedation seen
heart rate (HR), mixed-venous partial pressure of oxygen (Pvo(2)) and cardiac index (CI) (dogs [2]): significantly lower
mean arterial blood pressure (MAP), systemic vascular resistance (SVR) and oxygen extraction ratio (ER) (dogs [2]): significantly higher
decrease of global Do2 (oxygen delivery) [3]: at least 50%
